The source of these data is ChEMBL document CHEMBL1138055, “Tetraoxane antimalarials and their reaction with Fe(II)” (J Med Chem, 2006).

For one test, the system named is LOX IMVI. The test can be described thus: Antiproliferative activity against human LOX IMVI cell line after 48 hrs. The format is functional.
The subject of the next test is IGROV-1. Put plainly: Antiproliferative activity against human IGROV1 cell line after 48 hrs. In kind it is functional. As to conditions: Homo sapiens, IGROV-1, 48 h; for CC50: read-out: LC50 (the source's name).
Another test concerns UO-31. Put plainly: Antiproliferative activity against human UO31 cell line after 48 hrs. The format is functional. The settings on record: Homo sapiens, UO-31, 48 h; for CC50: read-out: LC50 (the source's name).
In test [1] the test system is Plasmodium falciparum.
Description: (§1) Antimalarial activity against Plasmodium falciparum D6
Test [2] has as its system Plasmodium falciparum. The source holds these as a separate data set.
Description: (§2) Antimalarial activity against Plasmodium falciparum W2
In test [3] the test system is Plasmodium falciparum. The source holds these as a separate data set.
Description: (§3) Antimalarial activity against Plasmodium falciparum TM91C235
Test [4] has as its system Plasmodium falciparum. Put plainly: microbe, parasite or virus in culture. The settings on record: D6.
Description: as §1
Test [5] has as its system Plasmodium falciparum. Put plainly: microbe, parasite or virus in culture. As to conditions: W2.
Description: as §2
The test system of test [6] is Plasmodium falciparum. The test can be described thus: microbe, parasite or virus in culture. The settings on record: TM91C235.
Description: as §3
Test [7] relates to Mus musculus. Put plainly: Effect on survival of CD1 mice (Mus musculus) infected with Plasmodium berghei KBG173 at 600 mg/kg/day, perorally. The format is functional, organism-based. The arrangement: route oral. As to conditions: route oral.
Test [8] concerns Mus musculus. The test can be described thus: Effect on survival of CD1 mice (Mus musculus) infected with Plasmodium berghei KBG173 at 200 mg/kg/day, perorally. In kind it is functional. The settings on record: route oral.
The subject of test [9] is Mus musculus. The test can be described thus: Effect on survival of CD1 mice (Mus musculus) infected with Plasmodium berghei KBG173 at 50 mg/kg/day, perorally. In kind it is functional. As to conditions: route oral.
In another test the test system is HOP-62. Put plainly: Antiproliferative activity against human HOP62 cell line after 48 hrs. The format is functional. The settings on record: Homo sapiens, HOP-62, 48 h.
Another test has as its system EKVX. The test can be described thus: Antiproliferative activity against human EKVX cell line after 48 hrs. In kind it is functional. As to conditions: Homo sapiens, EKVX, 48 h.
A further test deals with COLO 205. The test can be described thus: Antiproliferative activity against human COLO 205 cell line after 48 hrs. In kind it is functional. As to conditions: Homo sapiens, COLO 205, 48 h.
Where [10] appears, read: read-out: LC50 (the source's name).

Bounds are passed on as bounds.

By GI50 is commonly meant the concentration that inhibits growth by half. As usually defined, the TGI is the concentration giving total growth inhibition. Low values mean greater sensitivity of the cells, high ones lower sensitivity of the cells. One may read the IC50 as the concentration that inhibits the measured activity by half. A word on the IC90: it is the point of the concentration-response curve where the effect stands at 90%. For the compound `CCCOC(=O)CC[C@@H](C)[C@H]1CC[C@H]2[C@@H]3[C@H](OC(C)=O)C[C@@H]4CC5(CC[C@]4(C)[C@H]3C[C@H](OC(C)=O)[C@]12C)OOC1(CCC(C(=O)OCCC)CC1)OO5` (stereo in doubt; 5a), the 50% growth inhibitory concentration (GI50) in the test with LOX IMVI worked out at 1090 nM; in the test with IGROV-1 it was 1990 nM; with UO-31, 1150 nM. Further, the total growth inhibition concentration (TGI) in the test on LOX IMVI was 2740 nM; in the test with IGROV-1, 6160 nM; in the test with UO-31, 2440 nM. For the same compound, the CC50 is 6910 nM in the test with LOX IMVI (setting [10]), more than 100000 nM in the test with IGROV-1 and 5190 nM in the test with UO-31. Besides, the 50% inhibitory concentration (IC50) was determined as 6.7 nM in the test with Plasmodium falciparum [1], 9 nM in the test on Plasmodium falciparum [2] and 8.8 nM with Plasmodium falciparum [3]. Also, the figures for the IC90 with Plasmodium falciparum [1], in the test with Plasmodium falciparum [2] and in the test with Plasmodium falciparum [3] were 9.4 nM, 17.4 nM and 18 nM, respectively.

On to `O[C@@H](c1cc(C(F)(F)F)nc2c(C(F)(F)F)cccc12)[C@H]1CCCCN1` [MEFLOQUINE], for which the IC50 in the test on Plasmodium falciparum [4] was determined as 10.5 nM; in the test on Plasmodium falciparum [5], 3.1 nM; in the test with Plasmodium falciparum [6], 16.4 nM. Also, the IC90 was 21.7 nM with Plasmodium falciparum [4], 8.4 nM in the test on Plasmodium falciparum [5] and 65.7 nM in the test on Plasmodium falciparum [6].

For the compound `CC(=O)O[C@H]1C[C@H]2[C@@H]([C@H](OC(C)=O)C[C@@H]3CC4(CC[C@@]32C)OOC2(CCC(C(=O)NCCN(C)C)CC2)OO4)[C@@H]2CC[C@H]([C@H](C)CCC(=O)NCCN(C)C)[C@@]12C` (stereo in doubt; 12), the results for the half-inhibitory concentration (IC50) in the test on Plasmodium falciparum [4], with Plasmodium falciparum [5] and in the test with Plasmodium falciparum [6] were 128 nM, 132 nM and 145 nM, respectively. In addition, the IC90 in the test on Plasmodium falciparum [4] was 187 nM; in the test on Plasmodium falciparum [5], 167 nM; in the test with Plasmodium falciparum [6], 160 nM.

In the case of `CCCNC(=O)CC[C@@H](C)[C@H]1CC[C@H]2[C@@H]3[C@H](OC(C)=O)C[C@@H]4CC5(CC[C@]4(C)[C@H]3C[C@H](OC(C)=O)[C@]12C)OOC1(CCC(C(=O)NCCC)CC1)OO5` (stereo in doubt; 10), the half-maximal inhibitory concentration (IC50) in the test on Plasmodium falciparum [1] turned out to be 38.5 nM; with Plasmodium falciparum [2], 58.3 nM; with Plasmodium falciparum [3] it was 52.3 nM. Further, the values for the concentration for an effect of 90% (IC90) in the test on Plasmodium falciparum [1], in the test on Plasmodium falciparum [3] and in the test with Plasmodium falciparum [5] were 56 nM, 127 nM and 78 nM, respectively.

Take `CCCOC(=O)CC[C@@H](C)[C@H]1CC[C@H]2[C@@H]3[C@H](OC(C)=O)C[C@@H]4CC5(CC[C@]4(C)[C@H]3C[C@H](OC(C)=O)[C@]12C)OOC1(CCC(C(=O)OCCC)CC1)OO5` (stereo in doubt; 5b): the concentration for half-maximal inhibition (IC50) came out at 30.3 nM in the test on Plasmodium falciparum [1], 41.4 nM in the test on Plasmodium falciparum [2] and 42.2 nM in the test with Plasmodium falciparum [3]. Moreover, the 90% effect concentration (IC90) is 47.4 nM with Plasmodium falciparum [1], 83.5 nM in the test with Plasmodium falciparum [2] and 75.8 nM in the test with Plasmodium falciparum [3].

For `CC(=O)O[C@H]1C[C@H]2[C@@H]([C@H](OC(C)=O)C[C@@H]3CC4(CC[C@@]32C)OOC2(CCC(C(N)=O)CC2)OO4)[C@@H]2CC[C@H]([C@H](C)CCC(N)=O)[C@@]12C` (stereo in doubt; 8), the figures for the IC50 in the test on Plasmodium falciparum [1], in the test on Plasmodium falciparum [2] and in the test with Plasmodium falciparum [3] were 119 nM, 121 nM and 168 nM, respectively. Moreover, the concentration for an effect of 90% (IC90) in the test with Plasmodium falciparum [1] stood at 196 nM; in the test with Plasmodium falciparum [2], 265 nM; in the test with Plasmodium falciparum [3] it was 249 nM.

With `CC(=O)O[C@H]1C[C@H]2[C@@H]([C@H](OC(C)=O)C[C@@H]3CC4(CC[C@@]32C)OOC2(CCC(C(=O)Nc3ccccc3)CC2)OO4)[C@@H]2CC[C@H]([C@H](C)CCC(=O)Nc3ccccc3)[C@@]12C` (stereo in doubt; 14), the IC50 with Plasmodium falciparum [1] was 29.6 nM; in the test with Plasmodium falciparum [2], 52.9 nM; in the test with Plasmodium falciparum [3], 42.8 nM. Moreover, the 90% effect concentration (IC90) in the test with Plasmodium falciparum [1] was 44.5 nM; in the test on Plasmodium falciparum [2] it was 74.2 nM; in the test on Plasmodium falciparum [3] it was 86.6 nM.

On to `C[C@@H]1CC[C@H]2[C@@H](C)C(=O)O[C@@H]3O[C@@]4(C)CC[C@@H]1[C@]32OO4` [ARTEMISININ], for which the half-inhibitory concentration (IC50) in the test with Plasmodium falciparum [4] amounted to 9 nM; in the test on Plasmodium falciparum [5] it was 6.7 nM; with Plasmodium falciparum [6] it was 13 nM. The results for the 90% effect concentration (IC90) with Plasmodium falciparum [4], in the test on Plasmodium falciparum [5] and with Plasmodium falciparum [6] were 12.8 nM, 11.5 nM and 17.4 nM, respectively.

Consider `CCCNC(=O)CC[C@@H](C)[C@H]1CC[C@H]2[C@@H]3[C@H](OC(C)=O)C[C@@H]4CC5(CC[C@]4(C)[C@H]3C[C@H](OC(C)=O)[C@]12C)OOC1(CCC(C(=O)NCCC)CC1)OO5` (stereo in doubt; 9), for which the IC50 in the test with Plasmodium falciparum [1] stood at 10.5 nM; with Plasmodium falciparum [2], 18.1 nM; in the test on Plasmodium falciparum [3], 14.9 nM. Moreover, the concentration for an effect of 90% (IC90) in the test on Plasmodium falciparum [1] turned out to be 17.8 nM; with Plasmodium falciparum [2] it was 39.6 nM; in the test on Plasmodium falciparum [3], 63.2 nM.

Turning to `CC(=O)O[C@H]1C[C@H]2[C@@H]([C@H](OC(C)=O)C[C@@H]3CC4(CC[C@@]32C)OOC2(CCC(C(=O)O)CC2)OO4)[C@@H]2CC[C@H]([C@H](C)CCC(=O)O)[C@@]12C` (stereo in doubt; 6a), in the test with UO-31, the GI50 was 1740 nM, the TGI is 3650 nM and the CC50 was 7660 nM. In the test with Plasmodium falciparum [1], the midpoint of inhibition, the IC50, lay at 98.3 nM and the 90% effect level (IC90) was put at 147 nM. In the test with Plasmodium falciparum [2], this compound came in with a concentration for half-maximal inhibition (IC50) of 135 nM and a 90% effect concentration (IC90) of 156 nM. In the test with Plasmodium falciparum [3], this compound came in with an IC50 of 135 nM and a 90% effect concentration (IC90) of 257 nM.

In general, LC50 refers to the concentration lethal to half of the exposed cells or organisms. Higher therefore signals a less lethal substance. On to `CC(=O)O[C@H]1C[C@H]2[C@@H]([C@H](OC(C)=O)C[C@@H]3CC4(CC[C@@]32C)OOC2(CCC(C)CC2)OO4)[C@@H]2CC[C@H]([C@H](C)CCC(=O)O)[C@@]12C` (stereo in doubt; 18), for which the Activity in the test with Mus musculus [7] worked out at 20 days; with Mus musculus [8], 22.6 days; in the test on Mus musculus [9], 10.2 days. Besides, the 50% growth inhibitory concentration (GI50) in the test on IGROV-1 is 1400 nM; with UO-31 it was 1500 nM; in the test on HOP-62, 1640 nM; in the test with EKVX, 1450 nM; with COLO 205, 1980 nM. The TGI came out at 2760 nM with IGROV-1; 3000 nM in the test with UO-31; 3490 nM with HOP-62; 2900 nM in the test with EKVX; 4400 nM in the test on COLO 205. The CC50 is 5430 nM in the test on IGROV-1, 6020 nM in the test with UO-31, 7400 nM in the test on HOP-62 (setting [10]) and 9780 nM in the test with COLO 205 (setting [10]). Moreover, the LC50 in the test on EKVX stood at 5780 nM. The figures for the half-maximal inhibitory concentration (IC50) in the test on Plasmodium falciparum [1] and in the test with Plasmodium falciparum [2] were 31.1 nM and 17.7 nM, respectively.

On to `CC(=O)O[C@H]1C[C@H]2[C@@H]([C@H](OC(C)=O)C[C@@H]3CC4(CC[C@@]32C)OOC2(CCC(C(=O)O)CC2)OO4)[C@@H]2CC[C@H]([C@H](C)CCC(=O)O)[C@@]12C` (stereo in doubt; 6b), for which the 50% inhibitory concentration (IC50) in the test on Plasmodium falciparum [1], with Plasmodium falciparum [2] and in the test with Plasmodium falciparum [3] was more than 300 nM each time. Further, the IC90 in the test with Plasmodium falciparum [1], in the test with Plasmodium falciparum [5] and in the test with Plasmodium falciparum [6] was more than 300 nM throughout.
